# Experimental data as given in ChEMBL document CHEMBL1153754, “1-Aryl-3,4-dihydroisoquinoline inhibitors of JNK3” (Bioorg Med Chem Lett, 2009).
# Tests used:
# [1] = target: T1, Mitogen-activated protein kinase 10 (Homo sapiens, UniProt P53779); test: Inhibition of N-terminal His(6)-tagged truncated human JNK3 transfected in baculovirus expression system by fluorescence anisotropy
# [2] = target: T2, Mitogen-activated protein kinase 14 (Homo sapiens, UniProt Q16539); test: Inhibition of histidine-tagged human recombinant p38alpha after 120 mins by TR-FRET assay
# [3] = target: T1, Mitogen-activated protein kinase 10; test: Inhibition of JNK3 by high throughput screening
# [4] = target: T2, Mitogen-activated protein kinase 14; test: Inhibition of N-terminal GST-tagged p38alpha expressed in Escherichia coli by fluorescence anisotropy
# [5] = target: T3, Serine/threonine-protein kinase Sgk1 (Homo sapiens, UniProt O00141); test: Inhibition of SGK1
# T3 sequence (O00141 whole entry): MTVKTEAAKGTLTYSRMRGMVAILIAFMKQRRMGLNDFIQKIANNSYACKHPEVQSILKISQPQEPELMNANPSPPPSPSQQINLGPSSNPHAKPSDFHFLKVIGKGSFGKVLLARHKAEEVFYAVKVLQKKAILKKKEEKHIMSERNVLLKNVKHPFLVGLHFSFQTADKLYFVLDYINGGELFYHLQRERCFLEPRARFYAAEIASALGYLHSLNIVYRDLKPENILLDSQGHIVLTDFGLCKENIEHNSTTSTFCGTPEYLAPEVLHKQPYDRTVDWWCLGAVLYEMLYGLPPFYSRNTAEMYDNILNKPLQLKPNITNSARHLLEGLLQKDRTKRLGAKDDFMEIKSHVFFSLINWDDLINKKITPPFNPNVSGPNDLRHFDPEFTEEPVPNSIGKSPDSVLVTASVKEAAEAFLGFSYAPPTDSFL
# [6] = target: Mitogen-activated protein kinase 1 (Homo sapiens, UniProt P28482); test: Inhibition of N-terminal GST-tagged human full length Erk2 by radiometric filter binding assay
# [7] = target: T1, Mitogen-activated protein kinase 10; test: Inhibition of N-terminal histidine-tagged human full length JNK3 by radiometric filter binding assay
# [8] = target: Receptor tyrosine-protein kinase erbB-2 (Homo sapiens, UniProt P04626); test: Inhibition of ErbB2
# [9] = target: T4, Inhibitor of nuclear factor kappa-B kinase subunit alpha (Homo sapiens, UniProt O15111); test: Inhibition of IKKalpha
# T4 sequence (O15111 whole entry): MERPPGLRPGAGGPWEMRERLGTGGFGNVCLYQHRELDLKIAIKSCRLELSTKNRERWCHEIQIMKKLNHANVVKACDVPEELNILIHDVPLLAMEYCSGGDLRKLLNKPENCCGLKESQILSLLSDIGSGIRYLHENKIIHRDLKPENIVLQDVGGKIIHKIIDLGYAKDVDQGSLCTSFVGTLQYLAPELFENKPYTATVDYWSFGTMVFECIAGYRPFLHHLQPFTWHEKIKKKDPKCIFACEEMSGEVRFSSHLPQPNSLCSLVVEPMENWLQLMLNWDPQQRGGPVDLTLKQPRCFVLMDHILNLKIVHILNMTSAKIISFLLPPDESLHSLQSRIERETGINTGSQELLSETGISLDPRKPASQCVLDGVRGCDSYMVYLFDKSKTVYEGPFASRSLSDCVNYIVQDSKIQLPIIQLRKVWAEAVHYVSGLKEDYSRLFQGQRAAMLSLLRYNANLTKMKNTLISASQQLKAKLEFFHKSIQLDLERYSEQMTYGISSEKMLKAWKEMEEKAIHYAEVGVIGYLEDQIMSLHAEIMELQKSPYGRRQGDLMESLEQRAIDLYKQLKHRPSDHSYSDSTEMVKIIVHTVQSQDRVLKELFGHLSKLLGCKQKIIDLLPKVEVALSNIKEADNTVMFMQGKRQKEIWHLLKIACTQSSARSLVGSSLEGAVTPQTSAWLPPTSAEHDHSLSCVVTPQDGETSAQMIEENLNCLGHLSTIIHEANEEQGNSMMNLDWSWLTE
# [10] = target: T5, Inhibitor of nuclear factor kappa-B kinase subunit beta (Homo sapiens, UniProt O14920); test: Inhibition of IKK-beta
# T5 sequence (O14920 whole entry): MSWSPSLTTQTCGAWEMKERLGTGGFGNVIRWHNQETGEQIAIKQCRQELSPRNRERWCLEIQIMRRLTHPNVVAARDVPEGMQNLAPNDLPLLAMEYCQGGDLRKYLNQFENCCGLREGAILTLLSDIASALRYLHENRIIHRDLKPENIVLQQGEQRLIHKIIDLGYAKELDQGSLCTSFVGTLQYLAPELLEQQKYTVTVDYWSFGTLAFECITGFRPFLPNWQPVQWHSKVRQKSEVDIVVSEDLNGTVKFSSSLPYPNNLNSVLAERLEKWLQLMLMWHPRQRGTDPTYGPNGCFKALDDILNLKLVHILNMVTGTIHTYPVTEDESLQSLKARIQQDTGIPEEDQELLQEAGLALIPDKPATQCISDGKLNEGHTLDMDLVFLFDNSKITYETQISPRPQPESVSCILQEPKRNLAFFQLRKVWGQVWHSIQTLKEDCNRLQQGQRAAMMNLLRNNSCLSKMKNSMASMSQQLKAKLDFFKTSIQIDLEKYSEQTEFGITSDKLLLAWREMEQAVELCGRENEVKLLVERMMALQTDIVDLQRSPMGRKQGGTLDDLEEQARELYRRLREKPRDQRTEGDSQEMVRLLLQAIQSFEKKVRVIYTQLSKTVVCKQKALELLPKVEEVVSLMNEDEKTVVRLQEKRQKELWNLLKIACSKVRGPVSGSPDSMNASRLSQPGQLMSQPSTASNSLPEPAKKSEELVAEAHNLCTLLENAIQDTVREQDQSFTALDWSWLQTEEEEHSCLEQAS
# [11] = target: Serine/threonine-protein kinase PLK1 (Homo sapiens, UniProt P53350); test: Inhibition of PLK1
# [12] = target: Glycogen synthase kinase-3 beta (Homo sapiens, UniProt P49841); test: Inhibition of GSK3-beta
# [13] = target: Macrophage colony-stimulating factor 1 receptor (Homo sapiens, UniProt P07333); test: Inhibition of c-Fms
# [14] = target: Serine/threonine-protein kinase B-raf (Homo sapiens, UniProt P15056); test: Inhibition of B-Raf
# [15] = target: Rho-associated protein kinase 1 (Homo sapiens, UniProt Q13464); test: Inhibition of ROCK1
# [16] = target: Cyclin-dependent kinase 2 (Homo sapiens, UniProt P24941); test: Inhibition of CDK2
# [17] = target: Mitogen-activated protein kinase 9 (Homo sapiens, UniProt P45984); test: Inhibition of N-terminal histidine-tagged human full length JNK2-alpha-2 by radiometric filter binding assay
# [18] = target: T6, Mitogen-activated protein kinase 8 (Homo sapiens, UniProt P45983); test: Inhibition of N-terminal histidine-tagged human full length JNK1-alpha-1 by radiometric filter binding assay
# [19] = target: Mitogen-activated protein kinase kinase kinase 11 (Homo sapiens, UniProt Q16584); test: Inhibition of MLK3
# [20] = target: Tyrosine-protein kinase Lck (Homo sapiens, UniProt P06239)
# [21] = target: T2, Mitogen-activated protein kinase 14; test: Inhibition of p38alpha by high throughput screening
# [22] = target: T6, Mitogen-activated protein kinase 8; test: Inhibition of JNK1 by high throughput screening
# T6 sequence (P45983 whole entry): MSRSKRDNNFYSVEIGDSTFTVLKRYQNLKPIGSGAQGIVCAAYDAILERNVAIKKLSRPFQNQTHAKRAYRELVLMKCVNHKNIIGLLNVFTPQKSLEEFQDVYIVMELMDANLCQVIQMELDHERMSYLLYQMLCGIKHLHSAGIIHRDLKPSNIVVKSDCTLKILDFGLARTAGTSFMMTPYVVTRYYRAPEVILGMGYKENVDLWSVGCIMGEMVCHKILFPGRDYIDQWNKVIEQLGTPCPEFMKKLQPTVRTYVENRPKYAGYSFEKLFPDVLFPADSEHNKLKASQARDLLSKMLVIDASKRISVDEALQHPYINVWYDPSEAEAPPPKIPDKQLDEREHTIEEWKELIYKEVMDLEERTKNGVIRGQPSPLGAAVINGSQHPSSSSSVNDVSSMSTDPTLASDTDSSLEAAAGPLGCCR
# T2 sequence (Q16539 whole entry): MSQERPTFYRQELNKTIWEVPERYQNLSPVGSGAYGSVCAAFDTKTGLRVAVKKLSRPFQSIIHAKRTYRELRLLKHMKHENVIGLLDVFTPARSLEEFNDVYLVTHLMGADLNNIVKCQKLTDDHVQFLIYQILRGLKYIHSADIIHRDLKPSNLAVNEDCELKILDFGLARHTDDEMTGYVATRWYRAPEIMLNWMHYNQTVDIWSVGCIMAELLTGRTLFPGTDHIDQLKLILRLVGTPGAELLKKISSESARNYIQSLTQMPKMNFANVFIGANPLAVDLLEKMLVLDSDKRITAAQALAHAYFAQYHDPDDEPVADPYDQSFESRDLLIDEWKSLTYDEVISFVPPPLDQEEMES
# T1 sequence (P53779 whole entry, the tested form may be a part): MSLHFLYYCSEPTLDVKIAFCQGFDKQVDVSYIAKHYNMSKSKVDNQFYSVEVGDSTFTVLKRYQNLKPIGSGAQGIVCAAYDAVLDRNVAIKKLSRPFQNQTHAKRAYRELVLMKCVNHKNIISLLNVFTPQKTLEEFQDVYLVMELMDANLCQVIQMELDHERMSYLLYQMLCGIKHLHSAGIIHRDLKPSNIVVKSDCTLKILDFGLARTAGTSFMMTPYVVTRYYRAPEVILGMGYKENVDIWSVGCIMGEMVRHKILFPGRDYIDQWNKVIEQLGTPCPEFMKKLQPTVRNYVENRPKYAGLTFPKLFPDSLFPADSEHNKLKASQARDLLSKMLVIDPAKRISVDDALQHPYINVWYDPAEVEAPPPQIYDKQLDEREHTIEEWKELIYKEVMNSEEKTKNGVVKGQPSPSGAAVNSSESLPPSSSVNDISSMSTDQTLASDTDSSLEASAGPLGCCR
# Chain of Rho-associated protein kinase 1 (Q13464 whole entry): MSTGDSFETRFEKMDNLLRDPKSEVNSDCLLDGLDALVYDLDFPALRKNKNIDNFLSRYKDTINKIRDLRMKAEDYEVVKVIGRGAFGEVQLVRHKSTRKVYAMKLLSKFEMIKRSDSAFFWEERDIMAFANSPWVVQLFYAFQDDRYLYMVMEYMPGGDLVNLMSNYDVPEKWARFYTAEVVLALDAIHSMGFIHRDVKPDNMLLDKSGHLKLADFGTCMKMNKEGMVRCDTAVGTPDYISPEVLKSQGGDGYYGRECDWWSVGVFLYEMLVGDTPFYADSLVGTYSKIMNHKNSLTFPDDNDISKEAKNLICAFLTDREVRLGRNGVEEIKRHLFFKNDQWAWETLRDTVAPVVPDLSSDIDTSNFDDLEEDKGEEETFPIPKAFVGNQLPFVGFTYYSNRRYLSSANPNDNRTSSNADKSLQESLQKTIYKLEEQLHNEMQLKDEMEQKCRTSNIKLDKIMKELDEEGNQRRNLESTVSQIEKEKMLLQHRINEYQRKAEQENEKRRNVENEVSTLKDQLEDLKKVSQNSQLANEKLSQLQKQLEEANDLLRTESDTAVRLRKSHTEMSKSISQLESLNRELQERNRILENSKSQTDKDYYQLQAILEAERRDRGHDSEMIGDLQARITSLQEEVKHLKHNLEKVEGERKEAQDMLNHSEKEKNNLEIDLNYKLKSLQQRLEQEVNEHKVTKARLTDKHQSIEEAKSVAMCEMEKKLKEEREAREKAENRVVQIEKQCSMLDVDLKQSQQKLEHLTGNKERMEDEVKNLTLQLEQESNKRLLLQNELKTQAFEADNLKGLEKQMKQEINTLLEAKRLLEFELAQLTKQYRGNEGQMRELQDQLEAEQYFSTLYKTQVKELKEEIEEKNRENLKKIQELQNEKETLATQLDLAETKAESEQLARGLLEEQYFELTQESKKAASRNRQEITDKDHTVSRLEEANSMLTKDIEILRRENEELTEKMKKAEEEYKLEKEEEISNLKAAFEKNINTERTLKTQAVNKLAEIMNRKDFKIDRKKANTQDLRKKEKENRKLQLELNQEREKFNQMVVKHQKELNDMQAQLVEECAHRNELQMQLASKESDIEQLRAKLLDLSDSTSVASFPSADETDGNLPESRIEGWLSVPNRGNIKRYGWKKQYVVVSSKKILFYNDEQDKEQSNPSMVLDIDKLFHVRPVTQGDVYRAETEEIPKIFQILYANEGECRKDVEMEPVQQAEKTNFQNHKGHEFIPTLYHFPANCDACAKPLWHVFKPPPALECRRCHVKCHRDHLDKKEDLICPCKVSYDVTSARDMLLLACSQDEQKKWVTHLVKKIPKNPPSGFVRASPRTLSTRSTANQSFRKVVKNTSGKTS
# Chain of Serine/threonine-protein kinase B-raf (P15056 whole entry): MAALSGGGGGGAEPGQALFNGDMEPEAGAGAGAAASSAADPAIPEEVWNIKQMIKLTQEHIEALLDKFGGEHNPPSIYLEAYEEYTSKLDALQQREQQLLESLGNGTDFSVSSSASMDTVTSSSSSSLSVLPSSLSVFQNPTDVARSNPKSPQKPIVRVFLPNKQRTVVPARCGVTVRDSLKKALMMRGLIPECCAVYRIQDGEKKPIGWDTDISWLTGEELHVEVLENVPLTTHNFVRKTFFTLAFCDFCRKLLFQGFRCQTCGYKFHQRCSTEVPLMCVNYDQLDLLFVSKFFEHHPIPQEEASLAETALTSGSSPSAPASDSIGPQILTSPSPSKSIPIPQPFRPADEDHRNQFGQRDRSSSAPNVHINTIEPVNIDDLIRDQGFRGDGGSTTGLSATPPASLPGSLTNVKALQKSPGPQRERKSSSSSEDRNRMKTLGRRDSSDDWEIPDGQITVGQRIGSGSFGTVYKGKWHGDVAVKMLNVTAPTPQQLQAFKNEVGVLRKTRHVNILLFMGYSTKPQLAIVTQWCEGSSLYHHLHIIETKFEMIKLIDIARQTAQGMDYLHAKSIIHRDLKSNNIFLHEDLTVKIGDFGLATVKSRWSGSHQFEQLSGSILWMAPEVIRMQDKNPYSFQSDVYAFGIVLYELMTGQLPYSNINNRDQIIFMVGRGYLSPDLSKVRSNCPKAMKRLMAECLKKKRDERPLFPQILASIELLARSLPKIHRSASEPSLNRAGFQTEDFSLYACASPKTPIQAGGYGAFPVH
# Chain of Mitogen-activated protein kinase 1 (P28482 whole entry): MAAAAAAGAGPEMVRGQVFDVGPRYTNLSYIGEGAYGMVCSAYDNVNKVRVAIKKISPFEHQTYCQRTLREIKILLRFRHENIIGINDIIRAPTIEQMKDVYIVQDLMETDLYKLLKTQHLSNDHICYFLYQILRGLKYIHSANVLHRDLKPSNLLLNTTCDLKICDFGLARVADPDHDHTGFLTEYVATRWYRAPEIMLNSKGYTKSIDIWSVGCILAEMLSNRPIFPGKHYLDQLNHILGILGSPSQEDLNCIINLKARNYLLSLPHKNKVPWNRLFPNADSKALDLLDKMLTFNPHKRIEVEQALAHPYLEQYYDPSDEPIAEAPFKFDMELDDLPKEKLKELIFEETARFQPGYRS
# Chain of Macrophage colony-stimulating factor 1 receptor (P07333 whole entry): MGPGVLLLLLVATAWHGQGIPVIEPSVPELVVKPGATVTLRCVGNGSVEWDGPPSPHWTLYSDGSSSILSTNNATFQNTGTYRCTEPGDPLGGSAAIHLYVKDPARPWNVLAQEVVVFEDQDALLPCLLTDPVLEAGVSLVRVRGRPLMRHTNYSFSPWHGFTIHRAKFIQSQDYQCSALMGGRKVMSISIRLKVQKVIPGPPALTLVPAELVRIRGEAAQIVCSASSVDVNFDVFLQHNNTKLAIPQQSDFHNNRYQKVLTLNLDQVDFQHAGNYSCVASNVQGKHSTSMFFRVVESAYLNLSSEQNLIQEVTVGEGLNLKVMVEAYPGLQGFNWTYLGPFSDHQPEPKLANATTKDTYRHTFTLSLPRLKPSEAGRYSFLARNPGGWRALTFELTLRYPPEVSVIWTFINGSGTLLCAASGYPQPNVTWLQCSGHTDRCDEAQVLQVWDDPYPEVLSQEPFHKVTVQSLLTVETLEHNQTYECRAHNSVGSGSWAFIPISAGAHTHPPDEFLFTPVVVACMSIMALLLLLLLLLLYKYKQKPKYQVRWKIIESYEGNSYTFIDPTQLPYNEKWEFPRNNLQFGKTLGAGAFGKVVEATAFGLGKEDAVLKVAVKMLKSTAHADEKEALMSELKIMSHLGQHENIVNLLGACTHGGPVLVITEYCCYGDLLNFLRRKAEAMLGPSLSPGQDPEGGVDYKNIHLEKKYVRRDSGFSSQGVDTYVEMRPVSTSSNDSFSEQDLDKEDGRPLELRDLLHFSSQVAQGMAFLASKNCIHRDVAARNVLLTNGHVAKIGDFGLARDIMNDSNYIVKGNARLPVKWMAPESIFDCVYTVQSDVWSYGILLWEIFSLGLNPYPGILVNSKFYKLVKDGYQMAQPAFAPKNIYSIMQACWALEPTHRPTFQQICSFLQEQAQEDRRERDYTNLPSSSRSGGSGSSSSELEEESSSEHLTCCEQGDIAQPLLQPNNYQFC
IC50 [1] [µM],IC50 [2] [µM],IC50 [4] [µM],Structure (SMILES),also measured
12.6,> 15.8,–,COc1cc2c(cc1Cl)CCN=C2c1cccc(Cl)c1,–
–,–,–,COc1cc2c(cc1OC)C(c1cccc(Cl)c1)=NCC2,IC50 [3]: 10 µM
0.631,–,12.6,COc1cc2c(cc1Cl)C(c1cccc(Cl)c1F)=NCC2,–
6.31,–,> 15.8,COc1cc2c(cc1Cl)C(c1ccccc1)=NCC2,–
10,> 15.8,–,COc1cc2c(cc1Cl)CCN=C2c1cccc(Br)c1,–
> 15.8,> 15.8,–,COc1cc2c(cc1Cl)CCN=C2c1cccc(F)c1,–
5.01,–,> 15.8,COc1cc2c(cc1Cl)C(c1ccc(F)cc1)=NCC2,–
> 15.8,> 15.8,–,COc1cc2c(cc1Cl)CCN=C2c1ccc(F)cc1,–
0.398,–,12.6,COc1cc2c(cc1Cl)C(c1cccc(Br)c1)=NCC2,–
> 15.8,–,> 15.8,Clc1cccc(C2=NCCc3ccccc32)c1,–
3.98,–,> 15.8,COc1cc2c(cc1Cl)C(c1cccc(F)c1)=NCC2,–
6.31,–,> 15.8,COc1cc2c(cc1OC)C(c1ccc(Cl)c(Cl)c1)=NCC2,–
> 15.8,> 15.8,–,COc1cc2c(cc1OC)C(c1ccccc1)=NCC2,–
> 15.8,–,> 15.8,COc1cc2c(cc1OC)C(c1ccc(Cl)cc1)=NCC2,–
> 15.8,–,> 15.8,COc1cccc(C2=NCCc3cc(OC)c(OC)cc32)c1,–
> 15.8,> 15.8,–,COc1cc2c(cc1Cl)CCN=C2c1ccc2ccccc2c1,–
0.316,–,7.94,COc1cc2c(cc1Cl)C(c1ccc(Cl)c(Cl)c1)=NCC2,IC50 [5]: > 10 µM; IC50 [6]: > 100 µM; IC50 [7]: 0.0501 µM; IC50 [8]: > 10 µM; IC50 [9]: > 10 µM; IC50 [10]: > 10 µM; IC50 [11]: > 10 µM; IC50 [12]: > 10 µM; IC50 [13]: > 10 µM; IC50 [14]: > 10 µM; IC50 [15]: > 10 µM; IC50 [16]: > 10 µM; IC50 [17]: 0.794 µM; IC50 [18]: 100 µM; IC50 [19]: > 10 µM
15.8,> 15.8,–,COc1cc2c(cc1Cl)CCN=C2c1ccc(Cl)c(Cl)c1,–
> 15.8,–,> 15.8,COc1cc2c(cc1Cl)C(Cc1ccccc1)=NCC2,–
> 15.8,–,> 15.8,CCC1=NCCc2cc(OC)c(Cl)cc21,–
1,–,> 15.8,COc1cc2c(cc1Cl)C(c1ccc3ccccc3c1)=NCC2,–
> 15.8,> 15.8,–,COc1cc2c(cc1Cl)CCN=C2c1ccccc1,–
0.251,–,7.94,COc1cc2c(cc1Cl)C(c1cccc(Cl)c1)=NCC2,IC50 [5]: > 10 µM; IC50 [6]: > 100 µM; IC50 [7]: 0.126 µM; IC50 [8]: > 10 µM; IC50 [9]: > 10 µM; IC50 [10]: > 10 µM; IC50 [11]: > 10 µM; IC50 [12]: > 10 µM; IC50 [13]: > 10 µM; IC50 [14]: > 10 µM; IC50 [15]: > 10 µM; IC50 [16]: > 10 µM; IC50 [17]: 1.26 µM; IC50 [18]: > 100 µM; IC50 [20]: > 10 µM; IC50 [19]: > 10 µM
2,–,> 15.8,COc1cc2c(cc1Cl)C(c1cccc(C)c1)=NCC2,–
–,–,–,O=C(NC1CCNCC1)c1cccc(-c2n[nH]c3cc(Nc4ccccc4Cl)ccc23)c1,IC50 [21]: 0.00398 µM; IC50 [3]: 0.00126 µM; IC50 [22]: 0.0794 µM
